Reference: patent publication US5908852A, “1,3,5 trisubstituted pyrazole compounds for treatment of inflammation” (G. D. Searle & Co., priority 1996, dated 1999)

Assays:
Human COX I = Human COX I (Homo sapiens, UniProt P23219); test: biochemical; conditions: recombinant enzyme, CHAPS-solubilized insect cell membranes; arachidonic acid 10 μM; pre-incubation 10-20 minutes; pH 8.0; read-out: Human COX I ID50
Method: (§1) Recombinant baculoviruses were isolated by transfecting 4 μg of baculovirus transfer vector DNA into SF9 insect cells ([…]) along with 200 ng of linearized baculovirus plasmid DNA by the calcium phosphate method. See M. D. Summers and G. E. Smith, A Manual of Methods for Baculovirus Vectors and Insect Cell Culture Procedures, Texas Agric. Exp. Station Bull. […] Recombinant viruses were purified by three rounds of plaque purification and high titer (10E7-10E8 pfu/ml) stocks of virus were prepared. For large scale production, SF9 insect cells were infected in 10 liter fermentors (0.5×10^6 /ml) with the recombinant baculovirus stock such that the multiplicity of infection was 0.1. After 72 hours the cells were centrifuged and the cell pellet homogenized in Tris/Sucrose (50 mM: 25%, pH 8.0) containing 1% 3-[(3-cholamidopropyl)dimethylammonio]-1-propanesulfonate (CHAPS). The homogenate was centrifuged at 10,000×G for 30 minutes, and the resultant supernatant was stored at -80° C. before being assayed for COX activity.
COX activity was assayed as PGE2 formed/μg protein/time using an ELISA to detect the prostaglandin released. CHAPS-solubilized insect cell membranes containing the appropriate COX enzyme were incubated in a potassium phosphate buffer (50 mM, pH 8.0) containing epinephrine, phenol, and heme with the addition of arachidonic acid (10 μM). Compounds were pre-incubated with the enzyme for 10-20 minutes prior to the addition of arachidonic acid. […] The PGE2 formed was measured by standard ELISA technology (Cayman Chemical).

Human COX II = target: T1, Human COX II (Homo sapiens, UniProt P35354); test: COX II activity in vitro (PGE2 formed, ELISA); assay type: biochemical; conditions: recombinant enzyme, CHAPS-solubilized insect cell membranes; arachidonic acid 10 μM; pre-incubation 10-20 minutes; pH 8.0; read-out: Human COX II ID50
T1 construct: A 2.0 kb fragment containing the coding region of either human or murine COX-I or human or murine COX-II was cloned; made in house; host or cells: SF9 insect cells infected with recombinant baculovirus (transfer vector pVL1393); CHAPS-solubilized preparation
T1 sequence (P35354 18-604): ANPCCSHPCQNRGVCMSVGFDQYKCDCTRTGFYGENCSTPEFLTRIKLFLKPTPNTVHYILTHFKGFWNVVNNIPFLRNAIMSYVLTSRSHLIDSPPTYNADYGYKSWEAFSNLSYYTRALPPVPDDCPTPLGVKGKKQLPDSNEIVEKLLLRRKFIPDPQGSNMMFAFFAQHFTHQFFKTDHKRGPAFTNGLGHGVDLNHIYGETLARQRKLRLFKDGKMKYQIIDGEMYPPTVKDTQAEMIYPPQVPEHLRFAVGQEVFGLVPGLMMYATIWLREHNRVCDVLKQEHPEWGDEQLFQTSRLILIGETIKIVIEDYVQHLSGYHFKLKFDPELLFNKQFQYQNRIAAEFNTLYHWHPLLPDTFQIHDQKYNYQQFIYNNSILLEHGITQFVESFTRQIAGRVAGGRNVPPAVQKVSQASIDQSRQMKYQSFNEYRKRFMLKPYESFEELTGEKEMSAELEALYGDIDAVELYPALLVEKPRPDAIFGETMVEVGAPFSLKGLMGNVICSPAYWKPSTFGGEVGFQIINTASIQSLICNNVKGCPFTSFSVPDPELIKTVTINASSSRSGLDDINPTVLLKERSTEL
Method: as §1
COX activity was assayed as PGE2 formed/μg protein/time using an ELISA to detect the prostaglandin released. […] The PGE2 formed was measured by standard ELISA technology (Cayman Chemical).

Chain of Human COX I (P23219 24-599): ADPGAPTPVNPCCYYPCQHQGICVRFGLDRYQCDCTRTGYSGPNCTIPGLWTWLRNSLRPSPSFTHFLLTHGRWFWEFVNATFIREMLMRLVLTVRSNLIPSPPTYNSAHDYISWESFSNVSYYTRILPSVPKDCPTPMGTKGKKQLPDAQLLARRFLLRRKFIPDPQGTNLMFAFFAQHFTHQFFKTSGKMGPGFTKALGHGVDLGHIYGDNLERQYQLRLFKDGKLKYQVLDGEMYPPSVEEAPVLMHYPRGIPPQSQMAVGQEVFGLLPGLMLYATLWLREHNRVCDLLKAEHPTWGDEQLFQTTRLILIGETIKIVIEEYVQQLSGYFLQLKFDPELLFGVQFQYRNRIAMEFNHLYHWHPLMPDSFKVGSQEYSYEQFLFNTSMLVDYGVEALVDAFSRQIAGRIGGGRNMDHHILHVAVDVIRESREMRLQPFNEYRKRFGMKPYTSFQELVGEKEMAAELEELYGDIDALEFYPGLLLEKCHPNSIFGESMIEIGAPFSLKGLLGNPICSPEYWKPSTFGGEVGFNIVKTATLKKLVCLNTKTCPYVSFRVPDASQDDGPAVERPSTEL

Row | IC50 (Human COX I) | IC50 (Human COX II) | Compound
1 | 13.6 µM | – | Cc1ccc(-c2cc(-c3ccc(C)cc3)n(-c3ccc(S(N)(=O)=O)cc3)n2)cc1 [Example 2a, 4-(3,5-bis(4-methylphenyl)-1H-pyrazol-1-yl)benzenesulfonamide]
2 | 2.1 µM | 0.5 µM | COc1ccc(-c2cc(-c3ccc(OC)cc3)n(-c3ccc(S(N)(=O)=O)cc3)n2)cc1 [Example 2c, 4-(3,5-bis(4-methoxyphenyl)-1H-pyrazol-1-yl)benzenesulfonamide]
3 | > 100 µM | 0.7 µM | NS(=O)(=O)c1ccc(-n2nc(-c3ccc([N+](=O)[O-])cc3)cc2-c2ccc(Cl)cc2)cc1 [Example 2e, 4-(5-(4-chlorophenyl)-3-(4-nitrophenyl)-1H-pyrazol-1-yl)benzenesulfonamide]

Second part, the compound before the results:

Row | Compound | IC50 (Human COX I) | IC50 (Human COX II)
4 | NS(=O)(=O)c1ccc(-n2nc(-c3ccccc3)cc2-c2ccc(Cl)cc2)cc1 [Example 2b, 4-(5-(4-chlorophenyl)-3-phenyl-1H-pyrazol-1-yl)benzenesulfonamide] | 19.1 µM | –
5 | Cc1ccc(-c2cc(-c3ccc(Cl)cc3)n(-c3ccc(S(N)(=O)=O)cc3)n2)cc1 [Example 2d, 4-(5-(4-chlorophenyl)-3-(4-methylphenyl)-1H-pyrazol-1-yl)benzenesulfonamide] | 12.7 µM | –
